In the supplement of paper PMC10733146:

Experiments:
Assay in all cases: viability relative to DMSO control (fraction); higher = less drug effect (more viable cells)
Conditions in all cases: 48 h
[1] = compound: CC(=O)[C@]1(O)Cc2c(O)c3c(c(O)c2[C@@H](O[C@H]2C[C@H](N)[C@H](O)[C@H](C)O2)C1)C(=O)c1ccccc1C3=O [Idarubicin]
In short: (§1)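 Cells were incubated for 48 h at 37 °C and 5% CO2 in RPMI-1640 with penicillin/streptomycin, L-glutamine and human serum, at 4 × 10^4 cells per well in 384-well plates with compounds pre-plated at five concentrations, one well each. These were primary mononuclear tumour cells, fresh or cryopreserved, Ficoll-isolated from blood or bone marrow or obtained from processed lymph node. Viability values are CellTiter-Glo luminescence relative to the median of 16 inner DMSO wells.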

[2] = compound: CC(C)(O)CNc1nc(Nc2ccnc(C(F)(F)F)c2)nc(-c2cccc(C(F)(F)F)n2)n1 [AG-221 (Enasidinib)]
In short: as §1

[3] = compound: CC(C)C[C@H](NC(=O)[C@H](CCc1ccccc1)NC(=O)CN1CCOCC1)C(=O)N[C@@H](Cc1ccccc1)C(=O)N[C@@H](CC(C)C)C(=O)[C@@]1(C)CO1 [Carfilzomib]
In short: as §1

[4] = compound: CCCS(=O)(=O)Nc1ccc(F)c(C(=O)c2c[nH]c3ncc(-c4ccc(Cl)cc4)cc23)c1F [Vemurafenib]
In short: as §1

[5] = compound: CC[C@]1(O)C[C@H]2CN(CCc3c([nH]c4ccccc34)[C@@](C(=O)OC)(c3cc4c(cc3OC)N(C=O)[C@H]3[C@@](O)(C(=O)OC)[C@H](OC(C)=O)[C@]5(CC)C=CCN6CC[C@]43[C@@H]65)C2)C1 [Vincristine]
In short: as §1

[6] = compound: COc1c(Cl)cc2c([nH]c3cnccc32)c1NC(=O)c1cccnc1C [MLN-120B]
In short: as §1

[7] = compound: COc1cc(OC)c(/C=C/S(=O)(=O)Cc2ccc(OC)c(NCC(=O)O)c2)c(OC)c1 [Rigosertib]
In short: as §1

[8] = compound: Cc1[nH]c2ccccc2c1CCNCc1ccc(/C=C/C(=O)NO)cc1 [Panobinostat]
In short: as §1

[9] = compound: Cc1ccc(NC(=O)c2ccc(CN3CCN(C)CC3)cc2)cc1Nc1nccc(-c2cccnc2)n1 [Imatinib]
In short: as §1

[10] = compound: Cn1c(=O)n(-c2ccc(C(C)(C)C#N)cc2)c2c3cc(-c4cnc5ccccc5c4)ccc3ncc21 [BEZ235]
In short: as §1

[11] = compound: NC(=O)Nc1cc(-c2cccc(F)c2)sc1C(=O)N[C@H]1CCCNC1 [AZD7762]
In short: as §1

[12] = compound: NC(=O)c1ccc(I)c([N+](=O)[O-])c1 [Iniparib]
In short: as §1

[13] = compound: Nc1nc(Cl)nc2c1ncn2[C@H]1C[C@H](O)[C@@H](CO)O1 [Cladribine]
In short: as §1

[14] = compound: OC[C@H]1O[C@@H](n2cnc3c2N=CNC[C@H]3O)C[C@@H]1O [Pentostatin]
In short: as §1

[15] = compound: OCc1ccc(-c2ccc(-c3ccc(CO)s3)o2)s1
In short: as §1

primary DLBCL patient cells (S082)
viability ([1]; 0.024 µM): 0.992 | viability ([1]; 0.12 µM): 0.622 | viability ([1]; 0.6 µM): 0.328 | viability ([1]; 3 µM): 0.0161 | viability ([1]; 15 µM): 0.0147 | viability ([2]; 0.024 µM): 0.848 | viability ([2]; 0.12 µM): 0.871 | viability ([2]; 0.6 µM): 1.09 | viability ([2]; 3 µM): 1 | viability ([2]; 15 µM): 1.06 | viability ([3]; 0.00016 µM): 0.895 | viability ([3]; 0.0008 µM): 1.01 | viability ([3]; 0.004 µM): 0.0334 | viability ([3]; 0.02 µM): 0.018 | viability ([3]; 0.1 µM): 0.0218 | viability ([4]; 0.024 µM): 0.979 | viability ([4]; 0.12 µM): 0.989 | viability ([4]; 0.6 µM): 0.988 | viability ([4]; 3 µM): 1.03 | viability ([4]; 15 µM): 1.05 | viability ([5]; 0.016 µM): 0.609 | viability ([5]; 0.08 µM): 0.561 | viability ([5]; 0.4 µM): 0.474 | viability ([5]; 2 µM): 0.446 | viability ([5]; 10 µM): 0.396 | viability ([6]; 0.024 µM): 0.845 | viability ([6]; 0.12 µM): 0.83 | viability ([6]; 0.6 µM): 0.856 | viability ([6]; 3 µM): 0.819 | viability ([6]; 15 µM): 0.717 | viability ([7]; 0.008 µM): 0.954 | viability ([7]; 0.04 µM): 0.973 | viability ([7]; 0.2 µM): 0.931 | viability ([7]; 1 µM): 0.771 | viability ([7]; 5 µM): 0.524 | viability ([8]; 0.00064 µM): 0.781 | viability ([8]; 0.0032 µM): 0.404 | viability ([8]; 0.016 µM): 0.0415 | viability ([8]; 0.08 µM): 0.0242 | viability ([8]; 0.4 µM): 0.0275 | viability ([9]; 0.016 µM): 1.08 | viability ([9]; 0.4 µM): 1.2 | viability ([9]; 2 µM): 1.16 | viability ([9]; 10 µM): 1.36 | viability ([10]; 0.024 µM): 0.931 | viability ([10]; 0.12 µM): 1.05 | viability ([10]; 0.6 µM): 0.958 | viability ([10]; 3 µM): 1.07 | viability ([10]; 15 µM): 0.737 | viability ([11]; 0.024 µM): 0.76 | viability ([11]; 0.12 µM): 0.417 | viability ([11]; 0.6 µM): 0.122 | viability ([11]; 3 µM): 0.152 | viability ([11]; 15 µM): 0.125 | viability ([12]; 0.024 µM): 1.09 | viability ([12]; 0.12 µM): 1.06 | viability ([12]; 0.6 µM): 1.01 | viability ([12]; 3 µM): 1.06 | viability ([12]; 15 µM): 1.01 | viability ([13]; 0.024 µM): 0.858 | viability ([13]; 0.12 µM): 0.613 | viability ([13]; 0.6 µM): 0.476 | viability ([13]; 3 µM): 0.442 | viability ([13]; 15 µM): 0.399 | viability ([14]; 0.03 µM): 0.964 | viability ([14]; 0.15 µM): 0.887 | viability ([14]; 0.75 µM): 0.915 | viability ([14]; 3.75 µM): 0.825 | viability ([14]; 18.76 µM): 0.837 | viability ([15]; 0.024 µM): 0.929 | viability ([15]; 0.12 µM): 1.02 | viability ([15]; 0.6 µM): 0.84 | viability ([15]; 3 µM): 0.904 | viability ([15]; 15 µM): 0.622

primary FL patient cells (S022)
viability ([1]; 0.024 µM): 0.94 | viability ([1]; 0.12 µM): 0.509 | viability ([1]; 0.6 µM): 0.178 | viability ([1]; 3 µM): 0.182 | viability ([1]; 15 µM): 0.0171 | viability ([2]; 0.024 µM): 0.807 | viability ([2]; 0.12 µM): 0.799 | viability ([2]; 0.6 µM): 0.781 | viability ([2]; 3 µM): 0.67 | viability ([2]; 15 µM): 0.687 | viability ([3]; 0.00016 µM): 0.875 | viability ([3]; 0.0008 µM): 0.117 | viability ([3]; 0.004 µM): 0.0482 | viability ([3]; 0.02 µM): 0.0455 | viability ([3]; 0.1 µM): 0.0491 | viability ([4]; 0.024 µM): 0.992 | viability ([4]; 0.12 µM): 1.17 | viability ([4]; 0.6 µM): 0.965 | viability ([4]; 3 µM): 1.05 | viability ([4]; 15 µM): 1.22 | viability ([5]; 0.016 µM): 0.479 | viability ([5]; 0.08 µM): 0.448 | viability ([5]; 0.4 µM): 0.377 | viability ([5]; 2 µM): 0.349 | viability ([5]; 10 µM): 0.255 | viability ([6]; 0.024 µM): 0.946 | viability ([6]; 0.12 µM): 0.96 | viability ([6]; 0.6 µM): 0.916 | viability ([6]; 3 µM): 0.896 | viability ([6]; 15 µM): 0.758 | viability ([7]; 0.008 µM): 1.02 | viability ([7]; 0.04 µM): 0.951 | viability ([7]; 0.2 µM): 1.02 | viability ([7]; 1 µM): 0.919 | viability ([7]; 5 µM): 0.865 | viability ([8]; 0.00064 µM): 0.899 | viability ([8]; 0.0032 µM): 0.843 | viability ([8]; 0.016 µM): 0.514 | viability ([8]; 0.08 µM): 0.23 | viability ([8]; 0.4 µM): 0.17 | viability ([9]; 0.08 µM): 1.06 | viability ([9]; 0.4 µM): 1.05 | viability ([9]; 2 µM): 0.946 | viability ([9]; 10 µM): 0.909 | viability ([10]; 0.024 µM): 0.885 | viability ([10]; 0.12 µM): 0.977 | viability ([10]; 0.6 µM): 0.887 | viability ([10]; 3 µM): 0.827 | viability ([10]; 15 µM): 0.153 | viability ([11]; 0.024 µM): 0.724 | viability ([11]; 0.12 µM): 0.79 | viability ([11]; 0.6 µM): 0.725 | viability ([11]; 3 µM): 0.785 | viability ([11]; 15 µM): 0.655 | viability ([12]; 0.024 µM): 1.1 | viability ([12]; 0.12 µM): 0.916 | viability ([12]; 0.6 µM): 0.945 | viability ([12]; 3 µM): 0.937 | viability ([12]; 15 µM): 0.92 | viability ([13]; 0.024 µM): 0.814 | viability ([13]; 0.12 µM): 0.827 | viability ([13]; 0.6 µM): 0.55 | viability ([13]; 3 µM): 0.447 | viability ([13]; 15 µM): 0.333 | viability ([14]; 0.03 µM): 1.1 | viability ([14]; 0.15 µM): 0.939 | viability ([14]; 0.75 µM): 1.13 | viability ([14]; 3.75 µM): 0.877 | viability ([14]; 18.76 µM): 1.02 | viability ([15]; 0.024 µM): 0.946 | viability ([15]; 0.12 µM): 1.05 | viability ([15]; 0.6 µM): 0.969 | viability ([15]; 3 µM): 1.02 | viability ([15]; 15 µM): 0.512
